Source: ChEMBL document CHEMBL2040736, “Design of potent and selective hybrid inhibitors of the mitotic kinase Nek2: structure-activity relationship, structural biology, and cellular activity” (J Med Chem, 2012)

Key:
MDA-MB-231 = test: Growth inhibition of human MDA-MB-231 cells after 92 hrs by CellTiter-Blue assay; type: functional; details: MDA-MB-231, 92 h
[1] = target: RAC-beta serine/threonine-protein kinase (Homo sapiens) (UniProt P31751); test: Inhibition of AKT2 at 1 uM incubated for 30 mins prior to substrate addition study done at apparent ATP Km for enzyme
MCF7 = test: Growth inhibition of human MCF7 cells after 92 hrs by CellTiter-Blue assay; type: functional; details: MCF7, 92 h
[2] = target: Tyrosine-protein kinase ABL1 (Homo sapiens, UniProt P00519); test: Inhibition of ABL at 1 uM
[3] = target: Serine/threonine-protein kinase D2 (Homo sapiens) (UniProt Q9BZL6); test: Inhibition of PKD2 at 1 uM incubated for 30 mins prior to substrate addition study done at apparent ATP Km for enzyme
[4] = target: T1, Hepatocyte growth factor receptor (Homo sapiens, UniProt P08581); details: 1 uM
T1 sequence (P08581 whole entry): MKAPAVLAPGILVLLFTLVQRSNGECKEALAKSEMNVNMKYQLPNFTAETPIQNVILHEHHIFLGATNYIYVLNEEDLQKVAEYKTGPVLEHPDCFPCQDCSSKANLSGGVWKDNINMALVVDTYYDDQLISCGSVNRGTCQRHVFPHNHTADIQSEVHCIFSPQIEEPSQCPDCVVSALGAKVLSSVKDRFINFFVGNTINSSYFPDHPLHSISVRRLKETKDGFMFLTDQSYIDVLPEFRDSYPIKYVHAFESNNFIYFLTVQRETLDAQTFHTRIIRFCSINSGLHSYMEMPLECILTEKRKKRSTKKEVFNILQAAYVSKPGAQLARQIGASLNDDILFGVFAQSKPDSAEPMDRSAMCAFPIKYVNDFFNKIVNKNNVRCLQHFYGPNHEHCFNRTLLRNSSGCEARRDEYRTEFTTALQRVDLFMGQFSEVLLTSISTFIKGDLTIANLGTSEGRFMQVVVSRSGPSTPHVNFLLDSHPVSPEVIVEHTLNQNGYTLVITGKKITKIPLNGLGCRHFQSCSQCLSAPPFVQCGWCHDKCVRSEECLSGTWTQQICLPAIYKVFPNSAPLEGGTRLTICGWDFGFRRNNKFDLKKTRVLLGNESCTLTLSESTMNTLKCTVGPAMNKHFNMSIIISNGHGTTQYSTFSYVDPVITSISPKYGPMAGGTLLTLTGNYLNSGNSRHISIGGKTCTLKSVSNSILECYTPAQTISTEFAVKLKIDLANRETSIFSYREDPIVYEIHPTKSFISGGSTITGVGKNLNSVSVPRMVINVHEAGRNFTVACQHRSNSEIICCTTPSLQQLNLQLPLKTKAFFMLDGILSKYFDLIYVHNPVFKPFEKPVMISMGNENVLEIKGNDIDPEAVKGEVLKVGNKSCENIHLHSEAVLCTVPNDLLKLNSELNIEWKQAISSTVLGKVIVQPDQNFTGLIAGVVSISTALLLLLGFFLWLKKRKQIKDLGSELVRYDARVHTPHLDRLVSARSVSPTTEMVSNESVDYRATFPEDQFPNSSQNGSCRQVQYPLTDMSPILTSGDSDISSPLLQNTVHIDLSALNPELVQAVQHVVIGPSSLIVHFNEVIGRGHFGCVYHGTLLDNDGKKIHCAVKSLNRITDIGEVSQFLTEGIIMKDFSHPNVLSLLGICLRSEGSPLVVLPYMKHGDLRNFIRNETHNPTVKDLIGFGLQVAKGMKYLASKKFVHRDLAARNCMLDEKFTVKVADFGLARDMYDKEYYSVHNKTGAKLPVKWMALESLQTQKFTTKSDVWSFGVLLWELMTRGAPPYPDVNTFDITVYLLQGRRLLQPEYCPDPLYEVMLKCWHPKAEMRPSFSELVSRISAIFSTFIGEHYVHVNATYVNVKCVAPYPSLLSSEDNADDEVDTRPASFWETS

[5] = target: T2, Serine/threonine-protein kinase Chk2 (Homo sapiens, UniProt O96017); test: Inhibition of CHK2 incubated for 30 mins prior to substrate addition study done at apparent ATP Km for enzyme
T2 sequence (O96017 whole entry): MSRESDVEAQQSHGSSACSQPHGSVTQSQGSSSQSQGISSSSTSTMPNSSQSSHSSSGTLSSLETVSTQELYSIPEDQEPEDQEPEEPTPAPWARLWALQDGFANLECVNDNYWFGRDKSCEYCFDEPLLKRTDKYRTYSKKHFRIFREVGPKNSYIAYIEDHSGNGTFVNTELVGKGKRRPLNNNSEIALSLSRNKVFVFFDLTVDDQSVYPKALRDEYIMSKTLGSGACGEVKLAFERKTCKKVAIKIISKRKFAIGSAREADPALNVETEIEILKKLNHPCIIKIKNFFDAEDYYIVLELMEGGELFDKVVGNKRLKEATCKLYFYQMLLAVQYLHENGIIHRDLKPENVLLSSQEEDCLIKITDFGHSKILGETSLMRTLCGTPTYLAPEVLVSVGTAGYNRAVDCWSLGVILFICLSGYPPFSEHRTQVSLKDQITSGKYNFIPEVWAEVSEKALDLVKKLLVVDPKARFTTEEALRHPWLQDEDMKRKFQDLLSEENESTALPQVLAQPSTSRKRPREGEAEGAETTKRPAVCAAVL

[6] = target: T3, Glycogen synthase kinase-3 beta (Homo sapiens, UniProt P49841); test: Inhibition of GSK3beta at 1 uM incubated for 30 mins prior to substrate addition study done at apparent ATP Km for enzyme
[7] = target: Ribosomal protein S6 kinase alpha-5 (Homo sapiens) (UniProt O75582); test: Inhibition of MSK1 at 1 uM incubated for 30 mins prior to substrate addition study done at apparent ATP Km for enzyme
[8] = target: Serine/threonine-protein kinase Chk1 (Homo sapiens) (UniProt O14757); test: Inhibition of CHK1 at 1 uM incubated for 30 mins prior to substrate addition study done at apparent ATP Km for enzyme
[9] = target: Insulin receptor (Homo sapiens) (UniProt P06213); test: Inhibition of INSR at 1 uM incubated for 30 mins prior to substrate addition study done at apparent ATP Km for enzyme
[10] = target: Serine/threonine-protein kinase PLK1 (Homo sapiens, UniProt P53350); test: Inhibition of Plk1 using 5-FAMRRRAGALMDASFEEQ- CONH2 as substrate after 75 mins by caliper method
[11] = target: T2, Serine/threonine-protein kinase Chk2; details: 1 uM
[12] = target: T4, Tyrosine-protein kinase Fyn (Homo sapiens, UniProt P06241); test: Inhibition of FYN incubated for 30 mins prior to substrate addition study done at apparent ATP Km for enzyme
[13] = target: T4, Tyrosine-protein kinase Fyn; test: Inhibition of FYN at 1 uM incubated for 30 mins prior to substrate addition study done at apparent ATP Km for enzyme
HeLa = test: Growth inhibition of human HeLa cells after 92 hrs by CellTiter-Blue assay; type: functional
[14] = target: Mitogen-activated protein kinase 14 (Homo sapiens) (UniProt Q16539); test: Inhibition of p38alpha at 1 uM incubated for 30 mins prior to substrate addition study done at apparent ATP Km for enzyme
Chain of Mitogen-activated protein kinase 14 (Homo sapiens) (Q16539 whole entry): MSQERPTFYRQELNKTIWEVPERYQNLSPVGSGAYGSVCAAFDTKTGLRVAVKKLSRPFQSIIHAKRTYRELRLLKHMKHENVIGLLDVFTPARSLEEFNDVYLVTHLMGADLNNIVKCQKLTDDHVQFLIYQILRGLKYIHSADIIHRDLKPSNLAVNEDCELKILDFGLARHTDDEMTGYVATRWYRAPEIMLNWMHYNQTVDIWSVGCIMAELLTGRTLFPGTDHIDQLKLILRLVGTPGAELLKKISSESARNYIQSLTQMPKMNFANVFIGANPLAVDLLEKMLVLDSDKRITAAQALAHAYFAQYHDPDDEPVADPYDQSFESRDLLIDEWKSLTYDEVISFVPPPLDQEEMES

[15] = Inhibition of CH1D at 1 uM incubated for 30 mins prior to substrate addition study done at apparent ATP Km for enzyme
[16] = target: Proto-oncogene tyrosine-protein kinase Src (Homo sapiens, UniProt P12931); test: Inhibition of SRC incubated for 30 mins prior to substrate addition study done at apparent ATP Km for enzyme
Chain of Proto-oncogene tyrosine-protein kinase Src (P12931 2-536 limits assumed): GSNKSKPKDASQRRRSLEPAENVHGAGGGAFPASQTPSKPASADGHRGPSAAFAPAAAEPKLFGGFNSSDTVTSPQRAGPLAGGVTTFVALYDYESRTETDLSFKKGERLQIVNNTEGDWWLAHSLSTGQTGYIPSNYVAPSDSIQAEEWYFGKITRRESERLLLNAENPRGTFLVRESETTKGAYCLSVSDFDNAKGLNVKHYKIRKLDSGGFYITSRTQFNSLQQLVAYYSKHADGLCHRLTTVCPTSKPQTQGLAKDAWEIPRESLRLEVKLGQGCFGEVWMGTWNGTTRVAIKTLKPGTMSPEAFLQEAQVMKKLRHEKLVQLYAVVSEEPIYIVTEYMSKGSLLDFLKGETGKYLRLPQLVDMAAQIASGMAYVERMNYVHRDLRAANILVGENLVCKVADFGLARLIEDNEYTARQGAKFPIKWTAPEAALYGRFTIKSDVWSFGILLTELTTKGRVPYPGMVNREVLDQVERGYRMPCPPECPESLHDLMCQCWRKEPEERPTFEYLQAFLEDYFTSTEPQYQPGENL

[17] = target: T5, Tyrosine-protein kinase Lck (Homo sapiens, UniProt P06239); test: Inhibition of LCK at 1 uM incubated for 30 mins prior to substrate addition study done at apparent ATP Km for enzyme
Aurora kinase A = target: T6, Aurora kinase A (Homo sapiens, UniProt O14965); test: Inhibition of Aurora A kinase by caliper method
T6 sequence (O14965 whole entry): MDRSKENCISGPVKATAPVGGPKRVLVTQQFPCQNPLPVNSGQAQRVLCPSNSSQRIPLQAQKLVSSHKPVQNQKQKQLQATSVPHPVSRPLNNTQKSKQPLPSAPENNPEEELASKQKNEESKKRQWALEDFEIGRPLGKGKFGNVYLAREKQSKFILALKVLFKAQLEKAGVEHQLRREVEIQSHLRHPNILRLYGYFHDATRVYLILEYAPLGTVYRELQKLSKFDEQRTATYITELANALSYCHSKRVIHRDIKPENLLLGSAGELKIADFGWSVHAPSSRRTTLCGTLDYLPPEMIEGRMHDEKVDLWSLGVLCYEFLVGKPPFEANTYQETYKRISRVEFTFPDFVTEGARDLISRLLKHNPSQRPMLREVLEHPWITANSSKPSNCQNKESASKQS

[18] = target: RAC-alpha serine/threonine-protein kinase (Homo sapiens) (UniProt P31749); test: Inhibition of AKT1 at 1 uM incubated for 30 mins prior to substrate addition study done at apparent ATP Km for enzyme
[19] = target: Serine/threonine-protein kinase D2 (Homo sapiens, UniProt Q9BZL6); test: Inhibition of PKD2 incubated for 30 mins prior to substrate addition study done at apparent ATP Km for enzyme
[20] = target: MAP kinase-activated protein kinase 5 (Homo sapiens) (UniProt Q8IW41); test: Inhibition of PRAK at 1 uM incubated for 30 mins prior to substrate addition study done at apparent ATP Km for enzyme
Chain of MAP kinase-activated protein kinase 5 (Homo sapiens) (Q8IW41 whole entry): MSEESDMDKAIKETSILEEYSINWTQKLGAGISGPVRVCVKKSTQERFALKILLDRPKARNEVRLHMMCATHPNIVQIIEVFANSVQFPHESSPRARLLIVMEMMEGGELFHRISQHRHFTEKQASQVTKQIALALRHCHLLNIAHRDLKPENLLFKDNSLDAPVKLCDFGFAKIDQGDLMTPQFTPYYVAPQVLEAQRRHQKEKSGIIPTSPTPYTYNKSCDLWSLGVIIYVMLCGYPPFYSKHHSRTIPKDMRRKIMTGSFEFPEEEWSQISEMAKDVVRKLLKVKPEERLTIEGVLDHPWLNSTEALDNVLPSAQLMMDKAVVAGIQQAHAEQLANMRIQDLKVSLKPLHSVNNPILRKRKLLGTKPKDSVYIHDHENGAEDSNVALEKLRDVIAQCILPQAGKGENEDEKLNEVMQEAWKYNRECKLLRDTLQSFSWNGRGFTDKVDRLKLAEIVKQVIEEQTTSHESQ

[21] = target: MAP kinase-activated protein kinase 2 (Homo sapiens) (UniProt P49137); test: Inhibition of MAPKAPK2 at 1 uM incubated for 30 mins prior to substrate addition study done at apparent ATP Km for enzyme
Chain of MAP kinase-activated protein kinase 2 (Homo sapiens) (P49137 whole entry, looked up): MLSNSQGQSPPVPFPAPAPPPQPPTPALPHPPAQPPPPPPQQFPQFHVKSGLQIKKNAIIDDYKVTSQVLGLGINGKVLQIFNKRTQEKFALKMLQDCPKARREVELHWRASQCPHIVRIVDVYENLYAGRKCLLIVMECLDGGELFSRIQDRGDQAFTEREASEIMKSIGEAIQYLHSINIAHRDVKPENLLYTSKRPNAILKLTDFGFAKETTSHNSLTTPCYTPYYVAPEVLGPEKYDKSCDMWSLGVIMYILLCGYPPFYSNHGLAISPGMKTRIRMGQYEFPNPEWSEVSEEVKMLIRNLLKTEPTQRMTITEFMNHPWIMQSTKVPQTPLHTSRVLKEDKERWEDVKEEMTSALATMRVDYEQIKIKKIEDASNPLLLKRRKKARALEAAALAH

[22] = target: T1, Hepatocyte growth factor receptor; test: Inhibition of MET incubated for 30 mins prior to substrate addition study done at apparent ATP Km for enzyme
[23] = target: Mitogen-activated protein kinase 1 (Homo sapiens) (UniProt P28482); test: Inhibition of Erk2 at 1 uM incubated for 30 mins prior to substrate addition study done at apparent ATP Km for enzyme
[24] = target: Cyclin-dependent kinase 2 (Homo sapiens, UniProt P24941); test: Inhibition of CDK2 by caliper method
[25] = Inhibition of PKA at 1 uM incubated for 30 mins prior to substrate addition study done at apparent ATP Km for enzyme
[26] = target: T3, Glycogen synthase kinase-3 beta; test: Inhibition of GSK3beta incubated for 30 mins prior to substrate addition study done at apparent ATP Km for enzyme
[27] = target: T5, Tyrosine-protein kinase Lck; test: Inhibition of LCK incubated for 30 mins prior to substrate addition study done at apparent ATP Km for enzyme
Target sequence in this assay (P06239 whole entry): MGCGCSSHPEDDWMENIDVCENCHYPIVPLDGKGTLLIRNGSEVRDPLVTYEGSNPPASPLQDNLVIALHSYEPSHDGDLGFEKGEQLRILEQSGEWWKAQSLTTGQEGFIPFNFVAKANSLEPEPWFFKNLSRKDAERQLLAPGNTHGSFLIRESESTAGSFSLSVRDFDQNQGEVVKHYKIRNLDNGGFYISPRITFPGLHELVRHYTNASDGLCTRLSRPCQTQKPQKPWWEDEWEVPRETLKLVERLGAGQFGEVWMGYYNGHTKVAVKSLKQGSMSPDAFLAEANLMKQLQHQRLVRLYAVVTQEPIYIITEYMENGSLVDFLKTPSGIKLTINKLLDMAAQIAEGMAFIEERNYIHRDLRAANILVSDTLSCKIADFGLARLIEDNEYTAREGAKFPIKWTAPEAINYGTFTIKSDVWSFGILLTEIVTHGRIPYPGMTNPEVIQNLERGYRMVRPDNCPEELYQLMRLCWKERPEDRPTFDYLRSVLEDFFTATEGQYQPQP

[28] = target: Protein kinase C zeta type (Homo sapiens) (UniProt Q05513); test: Inhibition of PKCzeta at 1 uM incubated for 30 mins prior to substrate addition study done at apparent ATP Km for enzyme
Chain of Protein kinase C zeta type (Homo sapiens) (Q05513 whole entry): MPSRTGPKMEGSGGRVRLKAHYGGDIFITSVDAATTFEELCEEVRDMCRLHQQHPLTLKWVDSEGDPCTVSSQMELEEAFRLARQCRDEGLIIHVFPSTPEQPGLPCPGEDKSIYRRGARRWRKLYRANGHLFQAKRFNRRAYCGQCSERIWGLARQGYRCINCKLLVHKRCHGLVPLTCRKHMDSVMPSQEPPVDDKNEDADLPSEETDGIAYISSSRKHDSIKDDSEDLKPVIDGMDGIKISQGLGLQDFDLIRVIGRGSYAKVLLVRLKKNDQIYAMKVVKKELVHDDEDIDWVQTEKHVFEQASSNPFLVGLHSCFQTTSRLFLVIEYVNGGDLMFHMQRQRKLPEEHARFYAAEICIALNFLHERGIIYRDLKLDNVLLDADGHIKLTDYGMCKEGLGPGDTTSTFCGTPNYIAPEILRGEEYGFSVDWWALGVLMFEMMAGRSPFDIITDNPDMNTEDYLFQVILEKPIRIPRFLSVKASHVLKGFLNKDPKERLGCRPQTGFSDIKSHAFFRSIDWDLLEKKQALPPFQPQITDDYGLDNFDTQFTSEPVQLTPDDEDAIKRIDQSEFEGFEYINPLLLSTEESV

[29] = Inhibition of CH1D incubated for 30 mins prior to substrate addition study done at apparent ATP Km for enzyme
[30] = target: Ribosomal protein S6 kinase alpha-1 (Homo sapiens) (UniProt Q15418); test: Inhibition of RSK1 at 1 uM incubated for 30 mins prior to substrate addition study done at apparent ATP Km for enzyme

C[C@H](/C=C\C(F)(F)F)Oc1cc(-c2cc(-c3cc(CN(C)C)cs3)cnc2N)ccc1C(N)=O
GI50 (MDA-MB-231): 4160 nM | inhibition [1]: 0% | GI50 (MCF7): 2170 nM | IC50 [2]: 1110 nM | inhibition [3]: 77% | inhibition [4]: 46% | IC50 [5]: 2000 nM | inhibition [6]: 93% | inhibition [7]: 25% | inhibition [8]: 11% | inhibition [9]: 0% | IC50 [10]: 5820 nM | inhibition [11]: 32% | IC50 [12]: 750 nM | inhibition [13]: 57% | GI50 (HeLa): 590 nM | inhibition [14]: 0% | inhibition [15]: 67% | IC50 [16]: 840 nM | inhibition [17]: 89% | IC50 (Aurora kinase A): 4940 nM | inhibition [18]: 3% | IC50 [19]: 330 nM | inhibition [20]: 7% | inhibition [21]: 6% | IC50 [22]: 1170 nM | inhibition [23]: 11% | IC50 [24]: 4570 nM | inhibition [25]: 12% | IC50 [26]: 70 nM | IC50 [27]: 110 nM | inhibition [28]: 12% | IC50 [29]: 430 nM | inhibition [30]: 29%
